# Columns and labels:
# MKNK1 [1] = biological target: T1, MKNK1 (Homo sapiens, UniProt Q9BUB5, T385D); assay: MKNK1 kinase high ATP assay (TR-FRET-based); assay type: biochemical; settings: Table 2b; 2 mM ATP, 15 min preincubation
# T1 construct: GST (N); purchased Carna Biosciences 02-145; host or cells: insect cells (baculovirus expression system)
# Method in brief: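 TR-FRET read-out (anti-phospho-S6 Ser236 antibody, Eu/XL665) of biotin-peptide phosphorylation (0.06 μM) at high ATP (2 mM final). Enzyme was GST-MKNK1 full length, T344D, pre-bound to compound for 15 min before a 30 min reaction at 22 °C, pH 7.5. Inhibition scaled between no-inhibitor (0%) and no-enzyme (100%) wells.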
# MKNK1 [2] = biological target: T1, MKNK1; assay: MKNK1 kinase assay (MKNK1 TR-FRET assay); assay type: biochemical; settings: Table 1b; 10 μM ATP, 15 min preincubation
# T1 sequence (Q9BUB5 1-424 isoform Q9BUB5-2 T344D): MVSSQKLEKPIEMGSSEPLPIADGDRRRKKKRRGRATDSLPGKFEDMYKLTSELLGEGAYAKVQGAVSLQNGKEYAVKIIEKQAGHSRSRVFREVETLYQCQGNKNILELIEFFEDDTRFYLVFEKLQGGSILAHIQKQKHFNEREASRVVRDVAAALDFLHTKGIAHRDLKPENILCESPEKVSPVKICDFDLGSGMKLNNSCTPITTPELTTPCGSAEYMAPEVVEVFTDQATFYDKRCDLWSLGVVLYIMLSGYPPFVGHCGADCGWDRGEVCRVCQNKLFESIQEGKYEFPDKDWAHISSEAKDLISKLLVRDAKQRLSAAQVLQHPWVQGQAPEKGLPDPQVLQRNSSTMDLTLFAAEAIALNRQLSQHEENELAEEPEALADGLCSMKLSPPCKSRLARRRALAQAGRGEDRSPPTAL
Compound,IC50 (MKNK1 [1]) [nM],IC50 (MKNK1 [2]) [nM]
"COC[C@H]1CCCN1c1cccc2oc(-c3cnc4ccc(OC[C@H]5CNCC(=O)N5)nn34)cc12 [II-48, (6R)-6-{[(3-{4-[(2R)-2-(methoxymethyl)pyrrolidin-1-yl]-1-benzofuran-2-yl}imidazo[1,2-b]pyridazin-6-yl)oxy]methyl}piperazin-2-one]",3.9,7
"C[C@@H]1COCCN1c1cccc2oc(-c3cnc4ccc(OC[C@H]5CCC(=O)N5)nn34)cc12 [II-49, (5R)-5-{[(3-{4-[(3R)-3-methylmorpholin-4-yl]-1-benzofuran-2-yl}imidazo[1,2-b]pyridazin-6-yl)oxy]methyl}pyrrolidin-2-one]",11.9,5.2
"C[C@@H]1COCCN1c1cccc2oc(-c3cnc4ccc(O[C@H]5C[C@H](N)C5)nn34)cc12 [II-50, trans-3-[(3-{4-[(3R)-3-methylmorpholin-4-yl]-1-benzofuran-2-yl}imidazo[1,2-b]pyridazin-6-yl)oxy]cyclobutanamine]",50.6,39.1
"C[C@@H]1COCCN1c1cccc2oc(-c3cnc4ccc(OC[C@@H]5CCC(=O)N5)nn34)cc12 [II-51, (5S)-5-{[(3-{4-[(3R)-3-methylmorpholin-4-yl]-1-benzofuran-2-yl}imidazo[1,2-b]pyridazin-6-yl)oxy]methyl}pyrrolidin-2-one]",50.8,2.8
"FC(F)(F)COc1ccc2ncc(-c3cc4c(N5CCNCC5)cccc4o3)n2n1 [II-56, 3-[4-(piperazin-1-yl)-1-benzofuran-2-yl]-6-(2,2,2-trifluoroethoxy)im-idazo[1,2-b]pyridazine]",3.1,5.4
"C[C@H](N)COc1ccc2ncc(-c3cc4c(N5CCOC[C@H]5C)cccc4o3)n2n1 [II-57, (2S)-1-[(3-{4-[(3R)-3-methylmorpholin-4-yl]-1-benzofuran-2-yl}imidazo[1,2-b]pyridazin-6-yl)oxy]propan-2-amine]",75.1,53.7
"C[C@H](N)COc1ccc2ncc(-c3cc4c(N5CCOC(C)(C)C5)cccc4o3)n2n1 [II-61, (2S)-1-({3-[4-(2,2-dimethylmorpholin-4-yl)-1-benzofuran-2-yl]imidazo[1,2-b]pyridazin-6-yl}oxy)propan-2-amine]",66.2,23.6
"CC1(C)CN(c2cccc3oc(-c4cnc5ccc(OC[C@@H]6CCC(=O)N6)nn45)cc23)CCO1 [II-63, (5S)-5-[({3-[4-(2,2-dimethylmorpholin-4-yl)-1-benzofuran-2-yl]imidazo[1,2-b]pyridazin-6-yl}oxy)methyl]pyrrolidin-2-one]",39.5,15.2
"C[C@H](N)COc1ccc2ncc(-c3cc4c(N5CCO[C@@H](C)C5)cccc4o3)n2n1 [II-67, (2S)-1-[(3-{4-[(2S)-2-methylmorpholin-4-yl]-1-benzofuran-2-yl}imidazo[1,2-b]pyridazin-6-yl)oxy]propan-2-amine]",56.3,23.5
"C[C@H]1CN(c2cccc3oc(-c4cnc5ccc(OC[C@@H]6CCC(=O)N6)nn45)cc23)CCO1 [II-68, (5S)-5-{[(3-{4-[(2S)-2-methylmorpholin-4-yl]-1-benzofuran-2-yl}imidazo[1,2-b]pyridazin-6-yl)oxy]methyl}pyrrolidin-2-one]",30.4,23.2
"C[C@@H]1CN(c2cccc3oc(-c4cnc5ccc(OC[C@@H](C)N)nn45)cc23)CCO1 [II-69, (2R)-1-[(3-{4-[(2R)-2-methylmorpholin-4-yl]-1-benzofuran-2-yl}imidazo[1,2-b]pyridazin-6-yl)oxy]propan-2-amine]",34.8,29.4
"C[C@H](N)COc1ccc2ncc(-c3cc4c(N5CCO[C@H](C)C5)cccc4o3)n2n1 [II-70, (2S)-1-[(3-{4-[(2R)-2-methylmorpholin-4-yl]-1-benzofuran-2-yl}imidazo[1,2-b]pyridazin-6-yl)oxy]propan-2-amine]",49.2,41.4
"C[C@@H]1CN(c2cccc3oc(-c4cnc5ccc(OC[C@H]6CCC(=O)N6)nn45)cc23)CCO1 [II-71, (5R)-5-{[(3-{4-[(2R)-2-methylmorpholin-4-yl]-1-benzofuran-2-yl}imidazo[1,2-b]pyridazin-6-yl)oxy]methyl}pyrrolidin-2-one]",6.1,6.5
"C[C@@H]1CN(c2cccc3oc(-c4cnc5ccc(OC[C@@H]6CCC(=O)N6)nn45)cc23)CCO1 [II-72, (5S)-5-{[(3-{4-[(2R)-2-methylmorpholin-4-yl]-1-benzofuran-2-yl}imidazo[1,2-b]pyridazin-6-yl)oxy]methyl}pyrrolidin-2-one]",33,15.7

# Stronger by IC50 (MKNK1 [1]), values ahead:
IC50 (MKNK1 [1]) [nM],IC50 (MKNK1 [2]) [nM],Compound
2.4,2.3,"CC1(C)CN(c2cccc3oc(-c4cnc5ccc(OCC(F)(F)F)nn45)cc23)CCN1 [II-54, 3-[4-(3,3-dimethylpiperazin-1-yl)-1-benzofuran-2-yl]-6-(2,2,2-trifluoroethoxy)im-idazo[1,2-b]pyridazine]"
2,6.4,"C[C@@H]1CN(c2cccc3oc(-c4cnc5ccc(OCC(F)(F)F)nn45)cc23)CCN1 [II-59, 3-{4-[(3R)-3-methylpiperazin-1-yl]-1-benzofuran-2-yl}-6-(2,2,2-trifluoroethoxy)im-idazo[1,2-b]pyridazine]"
1.4,3.5,"CC1(C)CN(c2cccc3oc(-c4cnc5ccc(OCCCS(C)(=O)=O)nn45)cc23)CCN1 [II-55, 3-[4-(3,3-dimethylpiperazin-1-yl)-1-benzofuran-2-yl]-6-[3-(methylsulfonyl)propoxy]im-idazo[l,2-b]pyridazine]"
1.4,2.6,"C[C@H]1CNCCN1c1cccc2oc(-c3cnc4ccc(OCCCS(C)(=O)=O)nn34)cc12 [II-58, 3-{4-[(2S)-2-methylpiperazin-1-yl]-1-benzofuran-2-yl}-6-[3-(methylsulfonyl)propoxy]im-idazo[1,2-b]pyridazine]"
1.3,0.9,"C[C@@H]1CNCCN1c1cccc2oc(-c3cnc4ccc(OC[C@H]5CCC(=O)N5)nn34)cc12 [II-65, (5R)-5-{[(3-{4-[(2R)-2-methylpiperazin-1-yl]-1-benzofuran-2-yl}imidazo[1,2-b]pyridazin-6-yl)oxy]methyl}pyrrolidin-2-one]"
1.1,1.1,"C[C@H]1CN(c2cccc3oc(-c4cnc5ccc(OC[C@H]6CCC(=O)N6)nn45)cc23)CCN1 [II-53, (5R)-5-{[(3-{4-[(3S)-3-methylpiperazin-1-yl]-1-benzofuran-2-yl}imidazo[1,2-b]pyridazin-6-yl)oxy]methyl}pyrrolidin-2-one]"
0.8,4.8,"COC[C@H]1CCCN1c1cccc2oc(-c3cnc4ccc(OC[C@@H]5CNCC(=O)N5)nn34)cc12 [II-47, (6S)-6-{[(3-{4-[(2R)-2-(methoxymethyl)pyrrolidin-1-yl]-1-benzofuran-2-yl}imidazo[1,2-b]pyridazin-6-yl)oxy]methyl}piperazin-2-one]"
0.2,1.4,"CC1(C)CN(c2cccc3oc(-c4cnc5ccc(OC[C@H]6CCC(=O)N6)nn45)cc23)CCN1 [II-46, (5R)-5-[({3-[4-(3,3-dimethylpiperazin-1-yl)-1-benzofuran-2-yl]imidazo[1,2-b]pyridazin-6-yl}oxy)methyl]pyrrolidin-2-one]"

# From patent US20160287589A1, “SUBSTITUTED-IMIDAZOPYRIDAZINES” (BAYER PHARMA AKTIENGESELLSCHAFT, priority 2013, published 2016)
